Source: US12594276B2, “Inhibitors of human immunodeficiency virus replication” (ViiV Healthcare UK (No.5) Limited, priority 2024, dated 2026)

Assays:
[1] = Compound cytotoxicity, XTT-based colorimetric assay; format: cell-based; settings: human; uninfected MT2 cells, day 4, XTT; read-out: CC50
In short: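 CC50 derived from XTT colorimetric signal measured on day 4 in MT2 cells that were not infected. All other steps followed the antiviral assay protocol.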

[2] = system: recombinant NL4-3 virus (nef section replaced with Renilla luciferase gene) in MT-2 cells; assay: HIV cell culture assay (antiviral activity, luciferase readout); format: cell-based; settings: Renilla, NL43, MT-2 cells infected for 4-5 days with recombinant NL4-3 Renilla luciferase virus
In short: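 Compound activity was measured as reduction of luciferase in MT-2 cells infected for 4-5 days with serially diluted compound present. EC50 values were calculated with the median effect equation.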

SMILES | CC50 at 4 days [1] | EC50 [2]
CCNc1cc(C2CCC(F)(F)CC2)nc2nc([C@H](Cc3cc(F)cc(F)c3)NC(=O)Cn3nc(C(F)F)c4c3C(F)(F)[C@@H]3C[C@H]43)n(-c3ccc(Cl)c4c(NS(C)(=O)=O)nn(CCCOC)c34)c(=O)c12 (atropisomer, axis not shown; (P)) [Example 427, N-[(1S)-1-[(3P)-3-[4-chloro-3-methanesulfonamido-1-(3-methoxypropyl)-1H-indazol-7-yl]-7-(4,4-difluorocyclohexyl)-5-(ethylamino)-4-oxo-3H,4H-pyrido[2,3-d]pyrimidin-2-yl]-2-(3,5-difluorophenyl)ethyl]-2-[(2S,4R)-9-(difluoromethyl)-5,5-difluoro-7,8-diazatricyclo[4.3.0.0^2,4]nona-1(6),8-dien-7-yl]acetamide] | > 20 nM | 0.01 nM
CS(=O)(=O)Nc1nn(CCN2CCOC3(CC3)C2)c2c(-n3c([C@H](Cc4cc(F)cc(F)c4)NC(=O)Cn4nc(C(F)F)c5c4C(F)(F)[C@@H]4C[C@H]54)nc4nc(C5CCC(F)(F)CC5)ccc4c3=O)ccc(Cl)c12 (atropisomer, axis not shown; (P)) [Example 176, N-[(1S)-1-[(3P)-3-[4-chloro-3-methanesulfonamido-1-(2-{4-oxa-7-azaspiro[2.5]octan-7-yl}ethyl)-1H-indazol-7-yl]-7-(4,4-difluorocyclohexyl)-4-oxo-3H,4H-pyrido[2,3-d]pyrimidin-2-yl]-2-(3,5-difluorophenyl)ethyl]-2-[(2S,4R)-9-(difluoromethyl)-5,5-difluoro-7,8-diazatricyclo[4.3.0.0^2,^4]nona-1(6),8-dien-7-yl]acetamide] | > 50 nM | 0.018 nM
CCc1cc(C2CCC(F)(F)CC2)nc2nc([C@H](Cc3cc(F)cc(F)c3)NC(=O)Cn3nc(C(F)(F)F)c4c3C[C@H]3C[C@@H]43)n(-c3ccc(Cl)c4c(NS(C)(=O)=O)nn(CCCOC)c34)c(=O)c12 (relative stereo) [Example 641, N-[(1S)-1-[(3P)-3-[4-chloro-3-methanesulfonamido-1-(3-methoxypropyl)-1H-indazol-7-yl]-7-(4,4-difluorocyclohexyl)-5-ethyl-4-oxo-3H,4H-pyrido[2,3-d]pyrimidin-2-yl]-2-(3,5-difluorophenyl)ethyl]-2-[(2R*,4R*)-9-(trifluoromethyl)-7,8-diazatricyclo[4.3.0.0^2,^4]nona-1(6),8-dien-7-yl]acetamide] | > 50 nM | 0.029 nM
Cc1cc(C2CCC(F)(F)CC2)nc2nc([C@H](Cc3cc(F)cc(F)c3)NC(=O)Cn3nc(C(F)F)c4c3C(F)(F)[C@@H]3C[C@H]43)n(-c3ccc(Cl)c4c(NS(C)(=O)=O)nn(CCN5CCC(F)(F)CC5)c34)c(=O)c12 (atropisomer, axis not shown; (P)) [Example 128, N-[(1S)-1-[(3P)-3-{4-chloro-1-[2-(4,4-difluoropiperidin-1-yl)ethyl]-3-methanesulfonamido-1H-indazol-7-yl}-7-(4,4-difluorocyclohexyl)-5-methyl-4-oxo-3H,4H-pyrido[2,3-d]pyrimidin-2-yl]-2-(3,5-difluorophenyl)ethyl]-2-[(2S,4R)-9-(difluoromethyl)-5,5-difluoro-7,8-diazatricyclo[4.3.0.0^2,^4]nona-1(6),8-dien-7-yl]acetamide] | > 50 nM | 0.013 nM
CC(C)[C@H]1CN(CCn2nc(NS(C)(=O)=O)c3c(Cl)ccc(-n4c([C@H](Cc5cc(F)cc(F)c5)NC(=O)Cn5nc(C6CC6)c6c5C[C@@H]5C[C@H]65)nc5nc(C6CCC(F)(F)CC6)cc(C(F)F)c5c4=O)c32)CCO1 (atropisomer, axis not shown; (P)) [Example 467, N-[(1S)-1-[(3P)-3-(4-chloro-3-methanesulfonamido-1-{2-[(2S)-2-(propan-2-yl)morpholin-4-yl]ethyl}-1H-indazol-7-yl)-7-(4,4-difluorocyclohexyl)-5-(difluoromethyl)-4-oxo-3H,4H-pyrido[2,3-d]pyrimidin-2-yl]-2-(3,5-difluorophenyl)ethyl]-2-[(2S,4S)-9-cyclopropyl-7,8-diazatricyclo[4.3.0.0^2,^4]nona-1(6),8-dien-7-yl]acetamide] | > 20 nM | 0.017 nM
Cc1cc(C2CCC(F)(F)CC2)nc2nc([C@H](Cc3cc(F)cc(F)c3)NC(=O)Cn3nc(C4CC4)c4c3C[C@@H]3C[C@H]43)n(-c3ccc(Cl)c4c(NS(C)(=O)=O)nn(CCN5CCCC5)c34)c(=O)c12 (atropisomer, axis not shown; (P)) [Example 273, N-[(1S)-1-[(3P)-3-{4-chloro-3-methanesulfonamido-1-[2-(pyrrolidin-1-yl)ethyl]-1H-indazol-7-yl}-7-(4,4-difluorocyclohexyl)-5-methyl-4-oxo-3H,4H-pyrido[2,3-d]pyrimidin-2-yl]-2-(3,5-difluorophenyl)ethyl]-2-[(2S,4S)-9-cyclopropyl-7,8-diazatricyclo[4.3.0.0^2,^4]nona-1(6),8-dien-7-yl]acetamide] | > 50 nM | 0.02 nM
COCCCn1nc(NS(C)(=O)=O)c2c(Cl)ccc(-n3c([C@H](Cc4cc(F)cc(F)c4)NC(=O)Cn4nc(C(F)F)c5c4C(F)(F)[C@@H]4C[C@H]54)nc4nc(C5CCC(F)(F)CC5)cc(NCCN5C[C@@H](C)O[C@@H](C)C5)c4c3=O)c21 (atropisomer, axis not shown; (P)) [Example 475] | > 20 nM | 0.004 nM
Cc1cc(C2(F)CCC(F)(F)CC2)nc2nc([C@H](Cc3cc(F)cc(F)c3)NC(=O)Cn3nc(C(F)(F)F)c4c3C(F)(F)[C@@H]3C[C@H]43)n(-c3ccc(Cl)c4c(NS(C)(=O)=O)nn(CCN5C[C@H](F)C[C@H](F)C5)c34)c(=O)c12 (atropisomer, axis not shown; (P)) [Example 569, N-[(1S)-1-[(3P)-3-(4-chloro-1-{2-[(3R,5S)-3,5-difluoropiperidin-1-yl]ethyl}-3-methanesulfonamido-1H-indazol-7-yl)-5-methyl-4-oxo-7-(1,4,4-trifluorocyclohexyl)-3H,4H-pyrido[2,3-d]pyrimidin-2-yl]-2-(3,5-difluorophenyl)ethyl]-2-[(2S,4R)-5,5-difluoro-9-(trifluoromethyl)-7,8-diazatricyclo[4.3.0.0^2,^4]nona-1(6),8-dien-7-yl]acetamide] | > 20 nM | 0.012 nM
Cc1cc(C2(F)CCC(F)(F)CC2)nc2nc([C@H](Cc3cc(F)cc(F)c3)NC(=O)Cn3nc(C(F)F)c4c3C(F)(F)[C@@H]3C[C@H]43)n(-c3ccc(Cl)c4c(NS(C)(=O)=O)nn([C@H](C)CN5C[C@H](F)C[C@H](F)C5)c34)c(=O)c12 (atropisomer, axis not shown; (P)) [Example 711, N-[(1S)-1-[(3P)-3-{4-chloro-1-[(2R)-1-[(3R,5S)-3,5-difluoropiperidin-1-yl]propan-2-yl]-3-methanesulfonamido-1H-indazol-7-yl}-5-methyl-4-oxo-7-(1,4,4-trifluorocyclohexyl)-3H,4H-pyrido[2,3-d]pyrimidin-2-yl]-2-(3,5-difluorophenyl)ethyl]-2-[(2S,4R)-9-(difluoromethyl)-5,5-difluoro-7,8-diazatricyclo[4.3.0.0^2,^4]nona-1(6),8-dien-7-yl]acetamide] | > 20 nM | 0.026 nM
COCCCn1nc(NS(C)(=O)=O)c2c(Cl)ccc(-n3c([C@H](Cc4cc(F)cc(F)c4)NC(=O)Cn4nc(C(F)F)c5c4C(F)(F)[C@@H]4C[C@H]54)nc4nc(C5(F)CCC(F)(F)CC5)cc(C)c4c3=O)c21 (atropisomer, axis not shown; (P)) [Example 553, N-[(1S)-1-[(3P)-3-[4-chloro-3-methanesulfonamido-1-(3-methoxypropyl)-1H-indazol-7-yl]-5-methyl-4-oxo-7-(1,4,4-trifluorocyclohexyl)-3H,4H-pyrido[2,3-d]pyrimidin-2-yl]-2-(3,5-difluorophenyl)ethyl]-2-[(2S,4R)-9-(difluoromethyl)-5,5-difluoro-7,8-diazatricyclo[4.3.0.0^2,^4]nona-1(6),8-dien-7-yl]acetamide] | > 20 nM | 0.024 nM
CS(=O)(=O)Nc1nn(CCN2CCOC(C(F)F)C2)c2c(-n3c([C@H](Cc4cc(F)cc(F)c4)NC(=O)Cn4nc(C(F)F)c5c4C(F)(F)[C@@H]4C[C@H]54)nc4nc(C5CCC(F)(F)CC5)ccc4c3=O)ccc(Cl)c12 (stereo partly drawn) [Example 187, N-[(1S)-1-[(3P)-3-(4-chloro-1-{2-[2-(difluoromethyl)morpholin-4-yl]ethyl}-3-methanesulfonamido-1H-indazol-7-yl)-7-(4,4-difluorocyclohexyl)-4-oxo-3H,4H-pyrido[2,3-d]pyrimidin-2-yl]-2-(3,5-difluorophenyl)ethyl]-2-[(2S,4R)-9-(difluoromethyl)-5,5-difluoro-7,8-diazatricyclo[4.3.0.0^2,4]nona-1(6),8-dien-7-yl]acetamide] | > 50 nM | 0.032 nM
COCCCn1nc(NS(C)(=O)=O)c2c(Cl)ccc(-n3c([C@H](Cc4cc(F)cc(F)c4)NC(=O)Cn4nc(C(F)F)c5c4C(F)(F)[C@@H]4C[C@H]54)nc4nc(C5CCC(F)(F)CC5)cc(NCCCN5CCCCC5)c4c3=O)c21 (atropisomer, axis not shown; (P)) [Example 519, N-[(1S)-1-[(3P)-3-[4-chloro-3-methanesulfonamido-1-(3-methoxypropyl)-1H-indazol-7-yl]-7-(4,4-difluorocyclohexyl)-4-oxo-5-{[3-(piperidin-1-yl)propyl]amino}-3H,4H-pyrido[2,3-d]pyrimidin-2-yl]-2-(3,5-difluorophenyl)ethyl]-2-[(2S,4R)-9-(difluoromethyl)-5,5-difluoro-7,8-diazatricyclo[4.3.0.0^2,^4]nona-1(6),8-dien-7-yl]acetamide] | > 20 nM | 0.024 nM
